Test results taken from ChEMBL document CHEMBL3864122, “Antibacterial sulfur-containing platensimycin and platencin congeners from Streptomyces platensis SB12029” (2016).

Legend:
[1] = system: Micrococcus luteus; experiment: Antibacterial activity against Micrococcus luteus ATCC 9431 measured after 18 hrs by broth dilution method; format: functional; details: ATCC 9431, 18 h
[2] = system: Staphylococcus aureus; experiment: Antibacterial activity against methicillin-sensitive Staphylococcus aureus ATCC 25923 measured after 18 hrs by broth dilution method; format: functional; details: ATCC 25923, 18 h

MIC [1] | MIC [2] | SMILES
1.13 µM | 1.13 µM | C[C@]12C[C@@]34C=CC(=O)[C@@](C)(CCC(=O)Nc5c(O)ccc(C(=O)O)c5O)[C@@H]3[C@H](C[C@@H]1C4)O2
64 µg/mL | > 64 µg/mL | COc1ccc(C(=O)SC)c(OC)c1NC(=O)CC[C@]1(C)C(=O)C=C[C@]23C[C@H]4C[C@H](O[C@@]4(C)C2)[C@H]31
0.28 µM | 0.56 µM | C[C@]12C[C@@]34C=CC(=O)[C@@](C)(CCC(=O)Nc5c(O)ccc(C(=O)S[C@H]6CC(=O)[C@@](C)(CCC(=O)Nc7c(O)ccc(C(=O)O)c7O)[C@@H]7[C@@H]8C[C@@H]9C[C@]67C[C@]9(C)O8)c5O)[C@@H]3[C@H](C[C@@H]1C4)O2
